Results: US9265731B2, “Drying of drug-containing particles” (Bend Research, Inc., priority 2005, dated 2016)

Assay: In vitro dissolution test (microcentrifuge, PBS pH 6.5, 37° C., HPLC)
Type: physicochemical
Conditions: for Drug 1 Concentration: PBS pH 6.5, 290 mOsm/kg, 37° C., 1000 μg/mL if all drug dissolved
Experimental: A sample of the solid amorphous dispersion used in Example 4 was evaluated before and after secondary drying in an in vitro dissolution test to determine the effect of drying on concentration enhancement relative to the crystalline form of Drug 1. As a control, Control 5 consisted of crystalline Drug 1 alone. For this test, a sufficient amount of Dispersion 1 and Control 5 material was added to microcentrifuge test tubes so that the concentration of Drug 1 would have been 1000 μg/mL in both cases if all of the drug had dissolved. The test was performed in duplicate. The tubes were placed in a 37° C. temperature-controlled chamber, and 1.8 mL PBS at pH 6.5 and 290 mOsm/kg was added to each tube. The samples were mixed using a vortex mixer for about 60 seconds. The samples were centrifuged at 13,000 G at 37° C. for 1 minute. The resulting supernatant solution was then sampled and diluted 1:6 (by volume) with methanol and then analyzed by high performance liquid chromatography (HPLC). The contents of each tube were mixed on the vortex mixer and allowed to stand undisturbed at 37° C. until the next sample was taken. Samples were collected at 4, 10, 20, 40, 90, and 1200 minutes.
The concentrations of drug obtained in these samples were used to determine the maximum concentration of drug (MDC90) and the area under the concentration-versus-time curve (AUC90) during the initial ninety minutes.

[1] = PBS pH 6.5, 37° C., initial 90 min

CCOC(=O)N1c2ccc(C(F)(F)F)cc2[C@@H](N(Cc2cc(C(F)(F)F)cc(C(F)(F)F)c2)C(=O)OC)C[C@H]1CC [Control 5, [2R,4S]4-[(3,5-bistrifluoromethyl-benzyl)-methoxycarbonyl-amino]-2-ethyl-6-trifluoromethyl-3,4-dihydro-2H-quinoline-1-carboxylic acid ethyl ester]
AUC90 (area under the concentration-versus-time curve during the initial ninety minutes) [1]: <88 µg·min/mL
MDC90 (maximum concentration of drug during the initial ninety minutes) [1]: <1 µg/mL
AUC (time 0 min, PBS pH 6.5, 37° C.): 0 µg·min/mL
Drug 1 Concentration (time 0 min): 0 µg/mL
AUC (time 4 min, PBS pH 6.5, 37° C.): <2 µg·min/mL
Drug 1 Concentration (time 4 min): <1 µg/mL
AUC (time 10 min, PBS pH 6.5, 37° C.): <8 µg·min/mL
Drug 1 Concentration (time 10 min): <1 µg/mL
AUC (time 20 min, PBS pH 6.5, 37° C.): <18 µg·min/mL
Drug 1 Concentration (time 20 min): <1 µg/mL
AUC (time 40 min, PBS pH 6.5, 37° C.): <38 µg·min/mL
Drug 1 Concentration (time 40 min): <1 µg/mL
AUC (time 90 min, PBS pH 6.5, 37° C.): <88 µg·min/mL
Drug 1 Concentration (time 90 min): <1 µg/mL
AUC (time 1200 min, PBS pH 6.5, 37° C.): <1,200 min*μg/mL
Drug 1 Concentration (time 1200 min): <1 µg/mL
